Tests used:
human A1 receptor = molecular target: T1, human A1 receptor (Homo sapiens, UniProt P30542); experiment: Adenosine antagonistic activity, radioligand binding with [3H]DPCPX; conditions: [3H]DPCPX 4.5 nM
T1 sequence (P30542 1-326): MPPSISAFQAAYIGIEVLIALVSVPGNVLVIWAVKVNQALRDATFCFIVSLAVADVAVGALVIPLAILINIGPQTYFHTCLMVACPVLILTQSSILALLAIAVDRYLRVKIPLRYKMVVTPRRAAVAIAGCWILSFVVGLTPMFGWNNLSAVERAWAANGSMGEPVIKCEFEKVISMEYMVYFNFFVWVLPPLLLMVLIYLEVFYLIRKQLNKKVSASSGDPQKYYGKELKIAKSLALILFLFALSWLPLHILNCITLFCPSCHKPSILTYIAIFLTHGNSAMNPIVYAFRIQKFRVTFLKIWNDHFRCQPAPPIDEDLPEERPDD
Description: (§1) Test 1: Adenosine Antagonistic Activity
(§2) The adenosine antagonistic activity [Ki(nM)] of the test compound was examined by radioligand binding techniques using 8-cyclopentyl-1,3-dipropylxanthine, [dipropyl-2,3-^3H(N)] ([^3H]DPCPX, 4.5 nM) for human A1 receptor and [^3H]CGS 21680 (20 nM) for human A2a receptor.

ddY mice = experiment: Anticatalepsy activity in mouse (haloperidol-induced catalepsy, bar test); format: in vivo; conditions: 3.2 mg/kg orally, ddY mice n=7; haloperidol 0.32 mg/kg i.p. 30 min later; measured 30 min after injection
Description: Test 2: Anticatalepsy Activity in Mouse [I] Test Method
The test compound (3.2 mg/kg) was administered orally with ddY mice (n=7). Then, haloperidol (0.32 mg/kg) was injected intraperitoneally 30 min. after the administration of the compound. Thirty min after the injection, the cataleptic responses of mice were measured. The forelimbs of each mouse were placed on a 3 cm high, 3 mm wide horizontal bar, and the duration of cataleptic posture was measured for up to 30 sec.

human A2a receptor = human A2a receptor (Homo sapiens, UniProt P29274); experiment: Adenosine antagonistic activity, radioligand binding with [3H]CGS 21680; conditions: [3H]CGS 21680 20 nM
Description: as §1, §2

Chain of human A2a receptor (P29274 whole entry): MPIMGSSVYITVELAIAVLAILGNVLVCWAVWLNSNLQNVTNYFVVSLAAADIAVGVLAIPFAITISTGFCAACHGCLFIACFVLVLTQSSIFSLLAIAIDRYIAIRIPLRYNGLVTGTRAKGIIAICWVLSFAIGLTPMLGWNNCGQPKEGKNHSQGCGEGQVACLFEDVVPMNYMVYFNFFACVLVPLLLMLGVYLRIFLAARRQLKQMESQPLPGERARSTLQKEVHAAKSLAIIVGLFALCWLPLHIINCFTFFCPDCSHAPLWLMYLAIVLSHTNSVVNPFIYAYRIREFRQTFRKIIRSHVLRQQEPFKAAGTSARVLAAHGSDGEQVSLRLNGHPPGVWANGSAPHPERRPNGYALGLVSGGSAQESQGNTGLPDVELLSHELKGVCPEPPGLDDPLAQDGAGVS

melting point [°C]	Ki (human A1 receptor) [nM]	Ki (human A2a receptor) [nM]	SMILES	Manifestation rate of Catalepsy (number of mouse) (ddY mice)
192.3	–	–	COc1cccc(-c2nc(N)c(C#N)nc2-c2ccc(=O)n(C(C)C)c2)c1 (hydrate or solvate) [Example 37, 3-Amino-6-(1-isopropyl-6-oxo-1,6-dihydro-3-pyridyl)-5-(3-methoxyphenyl)-2-pyrazinecarbonitrile]	–
243.9	–	–	COc1ccc(-c2nc(N)c(C#N)nc2-c2ccc(=O)n(C(C)C)c2)cc1 (hydrate or solvate) [Example 38, 3-Amino-6-(1-isopropyl-6-oxo-1,6-dihydro-3-pyridyl)-5-(4-methoxyphenyl)-2-pyrazinecarbonitrile]	–
180	–	–	CC(C)n1cc(-c2nc(C#N)c(N)nc2-c2ccc(F)c(F)c2)ccc1=O (hydrate or solvate) [Example 39, 3-Amino-5-(3,4-difluorophenyl)-6-(1-isopropyl-6-oxo-1,6-dihydro-3-pyridyl)-2-pyrazinecarbonitrile]	–
222.2	–	–	CC(C)n1cc(-c2nc(C(=O)O)c(N)nc2-c2ccc(F)cc2)ccc1=O (hydrate or solvate) [Example 40, 3-amino-5-(4-fluorophenyl)-6-(1-isopropyl-6-oxo-1,6-dihydro-3-pyridyl)-2-pyrazinecarboxylic acid]	–
201 to 205	–	–	COc1ccc(-c2nc(C#N)c(N)nc2-c2ccccc2)cn1 [Example 1, 3-amino-6-(6-methoxy-3-pyridyl)-5-phenyl-2-pyrazinecarbonitrile]	–
> 250	–	–	Cn1cc(-c2nc(C(N)=O)c(N)nc2-c2ccccc2)ccc1=O [Example 3, 3-amino-6-(1-methyl-6-oxo-1,6-dihydro-3-pyridyl)-5-phenyl-2-pyrazinecarboxamide]	–
> 250	5.09	2.34	CCn1cc(-c2nc(C(N)=O)c(N)nc2-c2ccccc2)ccc1=O [Example 4, 3-Amino-6-(1-ethyl-6-oxo-1,6-dihydro-3-pyridyl)-5-phenyl-2-pyrazinecarboxamide]	0/7
> 250	–	–	CCCn1cc(-c2nc(C(N)=O)c(N)nc2-c2ccccc2)ccc1=O [Example 5, 3-Amino-6-(6-oxo-1-propyl-1,6-dihydro-3-pyridyl)-5-phenyl-2-pyrazinecarboxamide]	–
240 to 245	–	–	CC(C)n1cc(-c2nc(C(N)=O)c(N)nc2-c2ccccc2)ccc1=O [Example 6, 3-Amino-6-(1-isopropyl-6-oxo-1,6-dihydro-3-pyridyl)-5-phenyl-2-pyrazinecarboxamide]	–
230 to 238	–	–	CCOC(=O)c1nc(-c2ccc(=O)[nH]c2)c(-c2ccccc2)nc1N [Example 8, Ethyl 3-amino-6-(6-oxo-1,6-dihydro-3-pyridyl)-5-phenyl-2-pyrazinecarboxylate]	–
250 to 256	–	–	CC(C)OC(=O)c1nc(-c2ccc(=O)[nH]c2)c(-c2ccccc2)nc1N [Example 9, isopropyl 3-amino-6-(6-oxo-1,6-dihydro-3-pyridyl)-5-phenyl-2-pyrazinecarboxylate]	–
–	22.5	2.35	Cn1cc(-c2nc(C#N)c(N)nc2-c2ccccc2)ccc1=O [Example 11, 3-amino-6-(1-methyl-6-oxo-1,6-dihydro-3-pyridyl)-5-phenyl-2-pyrazinecarbonitrile]	0/7
193 to 199	–	–	CCn1cc(-c2nc(C#N)c(N)nc2-c2ccccc2)ccc1=O [Example 12, 3-Amino-6-(1-ethyl-6-oxo-1,6-dihydro-3-pyridyl)-5-phenyl-2-pyrazinecarbonitrile]	–
180 to 183	–	–	CCCn1cc(-c2nc(C#N)c(N)nc2-c2ccccc2)ccc1=O [Example 13, 3-Amino-6-(6-oxo-1-propyl-1,6-dihydro-3-pyridyl)-5-phenyl-2-pyrazinecarbonitrile]	–
204.5	–	–	CC(C)n1cc(-c2nc(C#N)c(N)nc2-c2ccccc2)ccc1=O [Example 14, 3-Amino-6-(1-isopropyl-6-oxo-1,6-dihydro-3-pyridyl)-5-phenyl-2-pyrazinecarbonitrile]	–
–	24	6.52	CC(C)n1cc(-c2nc(C#N)c(N)nc2-c2ccc(F)c(F)c2)ccc1=O [Example 39, 3-Amino-5-(3,4-difluorophenyl)-6-(1-isopropyl-6-oxo-1,6-dihydro-3-pyridyl)-2-pyrazinecarbonitrile]	0/7
–	5.25	1.49	CC(C)n1cc(-c2nc(C(=O)NCC#N)c(N)nc2-c2ccccc2)ccc1=O [Example 46, 3-Amino-N-(cyanomethyl)-6-(1-isopropyl-6-oxo-1,6-dihydro-3-pyridyl)-5-phenyl-2-pyrazinecarboxamide]	0/7
–	22.3	7.52	CC(C)n1cc(-c2nc(CO)c(N)nc2-c2ccccc2)ccc1=O [Example 47, 5-[5-amino-6-(hydroxymethyl)-3-phenyl-2-pyrazinyl]-1-isopropyl-2(1H)-pyridone]	1/7
–	6.07	1.69	CC(C)n1cc(-c2nc(C(=O)NCCO)c(N)nc2-c2ccccc2)ccc1=O [Example 49, 3-Amino-N-(2-hydroxyethyl)-6-(1-isopropyl-6-oxo-1,6-dihydro-3-pyridyl)-5-phenyl-2-pyrazinecarboxamide]	1/7
–	0.93	0.91	CC(C)n1cc(-c2nc(Br)c(N)nc2-c2ccccc2)cc(Br)c1=O [Example 53, 5-(5-amino-6-bromo-3-phenyl-2-pyrazinyl)-3-bromo-1-isopropyl-2(1H)-pyridone]	0/7
–	4.89	0.84	CC(C)n1cc(-c2ncc(N)nc2-c2cccs2)ccc1=O [Example 115, 5-[5-Amino-3-(2-thienyl)-2-pyrazinyl]-1-isopropyl-2(1H)-pyridone]	0/7
–	10.7	3.9	CC(C)n1cc(-c2ncc(N)nc2-c2cc(F)cc(F)c2)ccc1=O [Example 129, 5-[5-Amino-3-(3,5-difluorophenyl)-2-pyrazinyl]-1-isopropyl-2(1H)-pyridone]	0/7
–	0.61	0.23	CC(C)n1cc(-c2nc(Br)c(N)nc2-c2ccccc2)ccc1=O [Example 141, 5-(5-amino-6-bromo-3-phenyl-2-pyrazinyl)-1-isopropyl-2(1H)-pyridone]	0/7
–	1.78	0.54	CC(C)n1cc(-c2nc(-c3ccco3)c(N)nc2-c2ccccc2)ccc1=O [Example 144, 5-[5-Amino-6-(2-furyl)-3-phenyl-2-pyrazinyl]-1-isopropyl-2(1H)-pyridone]	0/7
–	1.57	0.32	CC(C)n1cc(-c2nc(Oc3ccccc3)c(N)nc2-c2ccccc2)ccc1=O [Example 151, 5-(5-amino-6-phenoxy-3-phenyl-2-pyrazinyl)-1-isopropyl-2(1H)-pyridone]	0/7

From US7407961B2, “Pyrazine derivatives and pharmaceutical use thereof” (Astellas Pharma Inc., priority 2003, dated 2008)
